{"source": "patent EP2736485B1", "about": "“AQUEOUS SOLUTIONS OF […], IN […] SOLUTIONS” (Universität Regensburg, priority 2011, dated 2013)", "assay": "Solubilisation of active ingredient in aqueous surfactant solution (stirring overnight at room temperature)", "type": "physicochemical", "settings": "Aqua bidest. ad 1,00 ml", "description": "Das einfache grundlegende System besteht aus einem erfindungsgemäß geeigneten Tensid, einem lipophilen Wirkstoff und Wasser. Durch Lösen der Bestandteile mittels Rühren entsteht ein vorzugsweise klares, kolloidales System, in welchem die lipophile Substanz in Mizellen verkapselt gelöst ist.\nWirkstoff und Tensid wurden eingewogen und um 1ml Aqua bidest. ergänzt. Dieser Ansatz wurde über Nacht durch Rühren bei Raumtemperatur (21°C) gelöst. […] Die Messungen wurden mittels Photonenkorellationsspektrometrie durchgeführt.\nDie Herstellung erfolgte analog wie bereits unter Beispiel 1 beschrieben."}
{"smiles": "CCCC1O[C@@H]2C[C@H]3[C@@H]4CCC5=CC(=O)C=C[C@]5(C)[C@H]4[C@@H](O)C[C@]3(C)[C@]2(C(=O)CO)O1", "note": "(stereo partly shown) [Budesonid]", "values": [{"measurement": "Budesonid in Lösung", "setting": "Solutol® HS15 10,00 mg", "result": "0,09 mg"}, {"measurement": "Budesonid in Lösung", "setting": "Solutol® HS15 50,00 mg", "result": "0,41 mg"}, {"measurement": "Budesonid in Lösung", "setting": "Solutol® HS15 100,00 mg", "result": "0,77 mg"}, {"measurement": "Budesonid in Lösung", "setting": "Solutol® HS15 200,00 mg", "result": "1,32 mg"}]}
